The text below walks through data of patent EP0979823B1, “NOVEL AMIDE COMPOUNDS AND DRUGS CONTAINING THE SAME” (Kowa Company Ltd., priority 1997, dated 1999).

Assay [1] concerns HepG2 cells. Kind of assay: ACAT inhibitory activity (anti-foamation activity) in HepG2 cells. Type of assay: cell-based. The following applies: 10 µg/ml 25-OH cholesterol, 18 hours, cholesterol ester = TC minus FC per protein, read-out: Enzyme (HepG2) IC50. On the procedure: (§1) J774 cells or HepG2 cells were spread on a 24-well plate. The cells were incubated in a 5% CO2 incubator at 37°C for 24 hours using DMEM in the case of the J774 cells and a MEM culture solution in the case of the HepG2 cells (both containing 10% fetal calf serum).
(§2) The medium was removed, and the residue was washed twice with PBS, then extracted with 1.5 ml of a hexane:isopropanol (3:2) mixture, and concentrated to dryness. The extract was dissolved in 0.2 ml of isopropanol containing 10% Triton X-100. Total cholesterol (TC) and free cholesterol (FC) were measured using Cholesterol E Test Wako (supplied by Wako Pure Chemical Industries, Ltd.) and Free Cholesterol E Test Wako (supplied by Wako Pure Chemical Industries, Ltd.).
(§3) The cell extract residue was solubilized in 0.25 ml of 2N NaOH at 37°C for 30 minutes, and the protein amount was measured using BCA Protein Assay Reagent (Pierce).
(§4) The amount of cholesterol based on the protein was calculated from the difference between TC and FC, and an IC50 value was obtained from the calculation in contrast with the control.

Assay [2] concerns J774 cells. Nature of the assay: ACAT inhibitory activity (anti-foamation activity) in J774 cells. It is filed as cell-based. The following applies: for IC50: J774 cells, 10 µg/ml 25-OH cholesterol, 18 hours, cholesterol ester = TC minus FC per protein, read-out: Enzyme (J774) IC50; for IC50 (HepG2) / IC50 (J774): ratio HepG2 / J774. On the procedure: as §1, §2, §3, §4
Assay [3] concerns the target ACAT enzyme from the blood vessel wall (Oryctolagus cuniculus, UniProt G1SUQ0). Kind of assay: ACAT inhibitory activity, microsomal enzyme from the blood vessel wall (breast aorta). It is filed as biochemical, rabbit. The following applies: for IC50 (B‡) / IC50 (A‡): ratio small intestine / blood vessel wall. On the procedure:
A microsome was prepared from the breast aorta of a rabbit which had been fed with 1% cholesterol food for 8 weeks in a usual manner, and suspended in a 0.15 M phosphate buffer solution (pH 7.4) to form an enzyme solution. An enzyme solution derived from the small intestine was prepared from the small intestine of a rabbit that had eaten a normal food.
To this solution were added 10 µl of the enzyme solution, and the mixture was reacted at 37°C for 5 minutes (for 3 minutes in the case of the small intestine). Then, 3 ml of a chloroform/methanol (2/1) mixture and 0.5 ml of 0.04 N hydrochloric acid were added thereto to stop the reaction. The lipid was then extracted. The solvent layer was concentrated to dryness, and dissolved in hexane. The solution was spotted on a TLC plate (supplied by Merck Co.). The elution was conducted with a hexane:ether:acetic acid (75:25:1) mixture.
The radioactivity of the resulting cholesterol ester fraction was measured using BAS 2000 (supplied by Fuji Photo Film Co., Ltd.). An IC50 value was obtained from the calculation in contrast with a control containing only DMSO.

Read-outs that look alike come from different tables or passages of the source.

ACAT enzyme from the blood vessel wall, sequence (G1SUQ0 entry or part of it): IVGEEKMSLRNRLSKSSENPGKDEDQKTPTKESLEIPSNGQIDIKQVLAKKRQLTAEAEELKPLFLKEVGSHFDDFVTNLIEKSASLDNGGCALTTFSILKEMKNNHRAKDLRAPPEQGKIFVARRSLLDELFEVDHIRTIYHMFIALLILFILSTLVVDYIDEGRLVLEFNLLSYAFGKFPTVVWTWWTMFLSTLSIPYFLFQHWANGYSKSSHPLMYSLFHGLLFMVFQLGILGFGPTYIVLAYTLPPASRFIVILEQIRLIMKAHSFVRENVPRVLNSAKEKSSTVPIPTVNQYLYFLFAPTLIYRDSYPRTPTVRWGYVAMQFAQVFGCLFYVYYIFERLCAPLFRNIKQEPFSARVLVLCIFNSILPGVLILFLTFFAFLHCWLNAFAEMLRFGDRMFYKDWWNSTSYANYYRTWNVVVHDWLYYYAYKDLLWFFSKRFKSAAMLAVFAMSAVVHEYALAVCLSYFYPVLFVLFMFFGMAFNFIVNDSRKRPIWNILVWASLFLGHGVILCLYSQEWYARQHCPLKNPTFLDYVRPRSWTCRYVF

For the molecule `CSc1cc(C)nc(SC)c1NC(=O)CCCCCSc1nc2ccccc2s1` [Compound No. 795, 6-(benzothiazol-2-ylthio)-N-[2,4-bis(methylthio)-6-methyl-3-pyridyl]hexanamide], the IC50 came out at 350 nM in assay [1] (Homo sapiens) and 50 nM in assay [2] (Mus musculus). Besides, the “IC50 (HepG2) / IC50 (J774)” value in assay [2] was determined as 7.0.

On to `CSc1cc(C)nc(SC)c1NC(=O)CCCCCCCSc1nc2ccccc2s1` [Compound No. 797, 8-(benzthiazol-2-ylthio)-N-[2,4-bis(methylthio)-6-methyl-3-pyridyl)octanamide], for which the IC50 in assay [1] (Homo sapiens) turned out to be 29 nM; in assay [2] (Mus musculus), 3.6 nM. Also, the “IC50 (HepG2) / IC50 (J774)” value in assay [2] was 8.1.

For the molecule `CCSc1cc(C)nc(SCC)c1NC(=O)CSc1nc2ccccc2o1` [Compound No. 811, 2-(benzoxazol-2-ylthio)-N-[2,4-bis(ethylthio)-6-methyl-3-pyridyl]acetamide], the figures for the IC50 in assay [1] (Homo sapiens) and in assay [2] (Mus musculus) were 1800 nM and 50 nM, respectively. Besides, in assay [2], the “IC50 (HepG2) / IC50 (J774)” value is reported as 36.0.

With `CCSc1cc(C)nc(SCC)c1NC(=O)CCCCCSc1nc2ccccc2o1` [Compound No. 815, 6-(benzoxazol-2-ylthio)-N-[2,4-bis(ethylthio)-6-methyl-3-pyridyl]hexanamide], the figures for the IC50 in assay [1] (Homo sapiens) and in assay [2] (Mus musculus) were 2600 nM and 120 nM, respectively. Further, in assay [2], the “IC50 (HepG2) / IC50 (J774)” value is reported as 21.7.

With `CCSc1cc(C)nc(SCC)c1NC(=O)CCCCCCCCSc1nc2ccccc2o1` [Compound No. 818, 9-(benzoxazol-2-ylthio)-N-[2.4-bis(ethylthio)-6-methyl-3-pyridyl]nonanamide], the IC50 in assay [1] (Homo sapiens) worked out at 63 nM; in assay [2] (Mus musculus) it was 62 nM. Further, in assay [2], the “IC50 (HepG2) / IC50 (J774)” value is on record as 1.0.

For `CCSc1cc(C)nc(SCC)c1NC(=O)CSc1nc2ccccc2[nH]1` [Compound No. 831, 2-(benzimidazol-2-ylthio)-N-[2,4-bis(ethylthio)-6-methyl-3-pyridyl]acetamide], the IC50 in assay [1] (Homo sapiens) came to 5400 nM; in assay [2] (Mus musculus), 57 nM. In assay [2], the “IC50 (HepG2) / IC50 (J774)” value is given as 94.7.

Consider `CSc1cc(C)nc(SC)c1NC(=O)CCCCCCCSc1nc2cccc(C(F)(F)F)c2o1` [Compound No. 1253, 8-(7-trifluoromethylbenzoxazol-2-ylthio)-N-[2,4-bis(methylthio)-6-methyl-3-pyridyl]octanamide], for which the half-inhibitory concentration (IC50) in assay [1] (Homo sapiens) turned out to be 4.4 nM; in assay [2] (Mus musculus), 4.1 nM. Besides, the “IC50 (HepG2) / IC50 (J774)” value in assay [2] came out at 1.1.

Regarding `CCSc1cc(C)nc(SCC)c1NC(=O)CCCCCCSc1nc2c(C)c(Cl)cc(C(C)C)c2o1` [Compound No. 1282, 7-(5-chloro-7-isopropyl-4-methylbenzoxazol-2-ylthio)-N-[2,4-bis(ethylthio)-6-methyl-3-pyridyl]heptanamide], the values for the IC50 in assay [1] (Homo sapiens) and in assay [2] (Mus musculus) were 6.2 nM and 3.2 nM, respectively. Also, the “IC50 (HepG2) / IC50 (J774)” value in assay [2] was determined as 1.9.

With `Cc1cc(SC(C)C)c(NC(=O)CCCCCCSc2nc3cccc(C(F)(F)F)c3o2)c(SC(C)C)n1` [Compound No. 1292, 7-(7-trifluoromethylbenzoxazol-2-ylthio)-N-[2,4-bis(isopropylthio)-6-methyl-3-pyridyl] heptanamide], in assay [1], the IC50 stood at 30 nM. Also, in assay [2], the IC50 came out at 2.7 nM and the “IC50 (HepG2) / IC50 (J774)” value came to 11.1.

Turning to `Cc1cc(SC(C)C)c(NC(=O)CCCCCCSc2nc3c(C)c(Cl)cc(C(C)C)c3o2)c(SC(C)C)n1` [Compound No. 1302, 7-(5-chloro-7-isopropyl-4-methylbenzoxazol-2-ylthio)-N-[2,4-bis(isopropylthio)-6-methyl-3-pyridyl]heptanamide], the IC50 was 15 nM in assay [1] (Homo sapiens) and 2.1 nM in assay [2] (Mus musculus). For the same molecule, in assay [2], the “IC50 (HepG2) / IC50 (J774)” value came out at 7.1.

On to `CC(C)c1cccc(C(C)C)c1NC(=O)C(C)(C)CCCOc1ccc2c(c1)C=C(c1nccn1C)C(CCc1ccc(F)cc1)O2` (centres unmarked) [Control 1, 5-[2-(2-(4-fluorophenyl)ethyl)-3-(1-methyl-1H-imidazol-2--yl)-2H-1-benzopyran-6-yl]oxy-2,2-dimethyl-N-(2,6-diisopropylphenyl)pentanamide, reference compound], for which the half-inhibitory concentration (IC50) in assay [3] (A‡: the blood vessel wall, microsome from breast aorta of rabbit fed 1% cholesterol food for 8 weeks, 14C-Oleoyl-CoA 40 µM, 37°C, 5 minutes) came out at 450 nM; in assay [1] (Homo sapiens), 5300 nM; in assay [2] (Mus musculus), 560 nM. Further, the “IC50 (B‡) / IC50 (A‡)” value in assay [3] was determined as 1.9. Also, the “IC50 (HepG2) / IC50 (J774)” value in assay [2] is on record as 9.5.

As to `CCCCCCCCCN(CC(C)(C)C)C(=O)N[C@H]1CCCC[C@@H]1OC(=O)CCNC(=O)C1OC(C)(C)OCC1(C)C` (stereo partly drawn) [Control 3, N-(2,2,5,5-tetramethyl-1,3-dioxan-4-ylcarbonyl)-β-alanine 2 (S)-[N'-(2,2-dimethylpropyl)-N'-nonylureido]-1(S)-cyclohexyl ester, reference compound], the IC50 in assay [1] (Homo sapiens) stood at 1300 nM; in assay [2] (Mus musculus), 320 nM.

Turning to `CCCCCCCN(CCCCCSc1nc(-c2ccccc2)c(-c2ccccc2)[nH]1)c1nc2ccccc2o1` [Control 4, [5-(4,5-diphenyl-1H-imidazol-2-ylthio)pentyl]-N-heptyl-2-benzoxazolamie, reference compound], the “IC50 (B‡) / IC50 (A‡)” value in assay [3] came out at 1.4. In addition, the results for the IC50 in assay [1] (Homo sapiens) and in assay [2] (Mus musculus) were 750 nM and 120 nM, respectively. In addition, in assay [2], the “IC50 (HepG2) / IC50 (J774)” value is 6.3.

Take `CC(C)c1cccc(C(C)C)c1NC(=O)CCCCCSc1nc2ccccc2o1` [Control 5, 6-(benzoxazol-2-ylthio)-N-(2,6-diisopropylphenyl)hexanamide, reference compound]: the half-inhibitory concentration (IC50) amounted to 1600 nM in assay [1] (Homo sapiens) and 1900 nM in assay [2] (Mus musculus). Also, the “IC50 (HepG2) / IC50 (J774)” value in assay [2] is on record as 0.8.

In the case of `Cc1cc(SC(C)C)c(NC(=O)CCCCCCCCSc2nc3cccc(C(F)(F)F)c3o2)c(SC(C)C)n1` [compound 1294, 9-(7-trifluoromethylbenzoxazol-2-ylthio)-N-[2,4-bis(isopropylthio)-6-methyl-3-pyridyl] nonanamide], in assay [1], the IC50 came out at 2.4 nM. In addition, in assay [2], the IC50 is 4.2 nM and the “IC50 (HepG2) / IC50 (J774)” value worked out at 0.6.

As usually defined, the IC50 is the concentration that inhibits the measured activity by half.
